# In patent US6998129B2, “Cosmetic or dermatological composition comprising an association between an elastase inhibitor compound of the N-acylaminoamide family and at least one anti-inflammatory compound” (L'Oreal, priority 2001, dated 2006):
# Key:
# [1] = biological target: T1, human leukocyte elastase (ELH) (Homo sapiens, UniProt P08246); experiment: in vitro anti-elastasic activity on Me-OSAAPV-p-NA substrate; assay type: biochemical; settings: even in a small amount
# T1 sequence (P08246 30-267): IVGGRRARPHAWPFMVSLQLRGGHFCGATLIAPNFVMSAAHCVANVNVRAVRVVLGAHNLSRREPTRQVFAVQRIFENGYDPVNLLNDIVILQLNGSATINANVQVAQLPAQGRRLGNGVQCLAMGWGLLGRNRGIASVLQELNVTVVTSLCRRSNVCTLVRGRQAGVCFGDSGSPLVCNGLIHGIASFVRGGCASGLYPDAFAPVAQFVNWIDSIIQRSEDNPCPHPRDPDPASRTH
# Method: The anti-elastasic activity of compounds according to the invention is determined in vitro compared to the human leukocyte elastase (ELH).
# The test is performed in the following way:
# A Me-OSAAPV-p-NA (methyl-O-succinate alanine alanine proline valine-p-nitroaniline) substrate, onto which ELH (40 milli-units per ml) and 0.1% of the compound to be tested are applied, is left for incubating at 37° C. for 60 minutes.
# Thereafter, the % inhibition of the control elastase activity is determined by spectrophotometry.
# [2] = test system: surviving human skins treated by a human leukocyte elastase (ELH); experiment: ex vivo protection of elastic fibres in fresh human skin cuts treated with ELH for 2 hours (Example 4); assay type: cell-based; settings: 20° C.
# Method: (§1) The ex vivo activity of example 2 compound has been evaluated on surviving human skins treated by a human leukocyte elastase (ELH).
# (§2) The test is performed the following way.
# Fresh human skin cuts from two different donors are treated for 2 hours, at 20° C., by 20 μl of a buffer solution (pH 7.4) optionally comprising 10 μg/ml ELH and optionally 0.1% of the compound to be tested, optionally previously put in solution in ethanol.
# The elastic fibres are colored in blue using catechin (+) and quantified morphometrically using a computer assisted image analysis. The average derma surface percentage occupied by elastic fibres Is evaluated this way.
# [3] = test system: surviving human skins treated by a human leukocyte elastase (ELH); experiment: ex vivo protection of elastic fibres in human skin fragments kept surviving 10 days with ELH (Example 5); assay type: cell-based; settings: 0.5 μg ELH per ml; 5 μl of 0.2% solution in ethanol every two days; 10 days at 37° C.; three donors; control 7.4%, ELH alone 5.1%
# Method: as §1, §2
# Fragments of normal human skin from three different donors are deposited in inserts positioned in culture wells. Culture medium added with antibiotics is added in the bottom of the wells. A pass is performed through slow diffusion between the two compartments via a porous membrane (pore size: 12 μm).
# (§3) The culture medium is renewed every three days.
# On the skin fragments, optionally 0.5 μg ELH per ml culture medium are added.
# 5 μl of the compound to be tested are also added every two days, previously put in solution at 0.2% by weight in ethanol.
# The skins are kept surviving for 10 days at 37° C.
# The elastic fibres are colored in blue using catechin (+) and quantified morphometrically using a computer assisted image analysis, The average derma surface percentage occupied by elastic fibres is evaluated this way.
# [4] = test system: surviving human skins irradiated by UVA (8 J/cm^2); experiment: protection of elastic fibres and collagen in surviving human skins irradiated by UVA (Example 6); assay type: cell-based; settings: UVA 8 J/cm^2 once, 5 μl of 0.2% solution every two days, 7 days at 37° C.
# Method: The activity of the example 2 compound has been evaluated on surviving human skins irradiated by UVA (8 J/cm^2).
# as §2
# Fragments of normal human skin from four different donors are deposited in inserts positioned in culture wells. Culture medium added with antibiotics is added in the bottom of the wells. A pass is performed through slow diffusion between the two compartments via a porous membrane (pore size: 12 μm).
# as §3
# On the skin fragments, every two days, 5 μl of the compound to be tested are added, previously put in solution at 0.2% wt in ethanol.
# The skins are kept surviving for 7 days at 37° C.
# The skins are radiated once at 8 J/cm^2 (RMX-3W Vilbert-Lourmat lamp).
# The elastic fibres are colored in blue using catechin (+) and quantified morphometrically using a computer assisted image analysis. The average derma surface percentage occupied by elastic fibres is evaluated this way.
smiles,measurement,setting,value
"CC(=O)N(c1cccc(C(F)(F)F)c1)C(C(=O)NCC(=O)O)C(C)C (stereo not drawn) [Example 2, {2-[acetyl-(3-trifluoromethyl-phenyl)-amino]-3-méthyl-butyrylamino}acetic acid]",inhibition of the elastase activity (in words),[1],strong inhibition
same,% Surface occupied by elastic fibres,"[2]; Skin 1, 10 μg/ml ELH + 0.1% compound, control 12.7%, ELH alone 4.85%",13.95%
same,% Surface occupied by elastic fibres,"[2]; Skin 2, 10 μg/ml ELH + 0.1% compound, control 15.25%, ELH alone 6.85%",11.85%
same,% Surface occupied by elastic fibres,[3],7.1%
same,Elastic fibres morphometric analysis (superficial derma),"[4]; untreated 6.75%, UVA alone 3.9%",6.8%
same,Collagen morphometric analysis (superficial derma),"[4]; untreated 87%, UVA alone 81%",92%
